Experimental data: patent US9017735B2, “Modulation of KCNQ potassium channel activity for treatment of psychiatric disorders and the symptoms thereof” (Marquette University, priority 2009, dated 2015)
Entries after “also recorded” stand apart in the source; their conditions may differ.

Tests used:
[1] = system: KCNQ (Kv7) potassium channels; test: Prepulse inhibition (PPI) of the startle response, acute PCP model of schizophrenia; format: in vivo, rats; conditions: for effect on deficits in prepulse inhibition produced by phencyclidine (summary statement): phencyclidine administration in laboratory rodents, no dose stated
Description: The startle response is produced by delivery of a sudden and intense sensory stimulus pulse (120 db sound) and can be inhibited by exposure to a weaker prepulse (62, 66, or 75 db) which is slightly above the background noise level (60 db). […] PPI has been used as a measure of sensory information processing in rodents and humans. […] A cocktail mixture of XE991 and PCP dissolved in saline was used in these studies. N=38 rats per treatment. *p<0.05 vs. Sal/Sal; +p<0.05 vs. Sal/PCP.
(§1) Drugs. All drugs were purchased from commercial sources and dissolved in saline. […] All drug doses were nmol per side and were injected bilaterally into the specified brain region.

[2] = system: KCNQ (Kv7) potassium channels; test: Social interaction behavior, acute PCP model of schizophrenia; format: in vivo, rats; conditions: phencyclidine administration in laboratory rodents; no dose stated
Description: Social interaction deficit is considered to be a negative symptom of schizophrenia and can be induced in rodents by acute PCP or Ketamine administration and can be reversed by antipsychotics. […] A cocktail mixture of XE991 and PCP dissolved in saline was used in these studies. *p<0.05 vs. Sal/Sal; +p<0.05 vs. Sal/PCP; N=25-42 rats per treatment.
Social interaction deficit is considered to be a negative symptom of schizophrenia and can be induced in rodents by acute PCP or Ketamine administration and can be reversed by antipsychotics. […] A cocktail mixture of DMP543 and PCP dissolved in 40% DMSO was used in these studies. *p<0.05 vs. Sal/Sal; +p<0.05 vs. Sal/PCP; N=10-28 rats per treatment. […]

[3] = system: KCNQ potassium channels in prefrontal cortex; test: Forced delayed alternation task in a T-maze (working memory), acute PCP model, brain microinfusion; format: in vivo, rats; conditions: for effect on deficits in forced delayed alternation task performance in a T-maze produced by phencyclidine (summary statement): phencyclidine administration in laboratory rodents, no dose stated
Experimental: This experimental paradigm involves the working memory, a prefrontal cortex dependent task, and is used to examine attention and memory function. This study was conducted to determine the role of KCNQ channels in PFC in regulation of memory.
Microinjection and Behavioral Experiments. Stainless Steel cannulae were implanted bilaterally 1 mm above nucleus accumbens or implanted in prefrontal cortex. Rats were permitted a minimum of 7 days recovery from surgery. Drugs were injected using an injection needle that extended 1 mm beyond the tip of the guide cannulae. […] In experiments where two drugs were delivered into accumbens, the microinjections were separated by 15 minutes. Behavioral activity then was monitored as discussed in the Results.
as §1

[4] = system: KCNQ (Kv7) potassium channels; test: Social interaction behavior, acute PCP model of schizophrenia; format: in vivo, rats; conditions: for effect of channel blocker alone on level of social interaction: 15 minutes before social interaction arena; for reversal of PCP-induced social interaction deficit: p<0.05 vs. Sal/PCP
KCNQ channel = conditions: comparative statement among the DuPont channel blockers; cited from earlier work
[5] = comparative statement among the DuPont channel blockers; cited from earlier work

Structure (SMILES): O=C1N(c2ccccc2)c2ccccc2C1(Cc1ccncc1)Cc1ccncc1 [Linopirdine, 3,3-bis(4-pyridinylmethyl)-1-phenylindolin-2-one]
- effect on deficits in prepulse inhibition produced by phencyclidine (summary statement) [1]: attenuate or fully reverse
- effect on deficits in social interaction produced by phencyclidine (summary statement) [2]: attenuate or fully reverse

Structure (SMILES): c1ccc(C2(N3CCCCC3)CCCCC2)cc1 [PCP, phencyclidine]
- effect of PCP alone on prepulse inhibition ([1]; PCP 1.5 mg/kg s.c., all three prepulses, p<0.05 vs. Sal/Sal): reduced the prepulse inhibition at all three prepulses; also recorded: disrupts the prepulse inhibition
- effect of PCP alone on working memory ([3]; PCP 3.0 mg/kg s.c. one hour before behavioral testing, trained rats, p<0.05 vs. Sal/Sal): robust and reproducible disruption of working memory
- effect of PCP alone on social interaction time ([4]; PCP 1.5 mg/kg s.c., 15 minutes before testing, p<0.05 vs. Sal/Sal): significant reduction in social interaction time

Structure (SMILES): O=C1c2ccccc2C(Cc2ccncc2)(Cc2ccncc2)c2ccccc21 [XE991, 10,10-bis(4-pyridinylmethyl)-9(101-1)-anthracenone]
- effect of channel blocker alone on prepulse inhibition ([1]; XE991 0.5 mg/kg s.c. alone, 10 minutes before startle chamber, prepulses 62, 66, 75 db): did not show any disruption of the prepulse inhibition
- reversal of PCP-induced deficits in PPI ([1]; XE991 0.5 mg/kg s.c. with PCP 1.5 mg/kg s.c. (cocktail in saline), 66 db prepulse, p<0.05 vs. Sal/PCP): reversed the PCP-induced deficits in PPI
- effect on deficits in prepulse inhibition produced by phencyclidine (summary statement) [1]: attenuate or fully reverse
- effect on deficits in social interaction produced by phencyclidine (summary statement) [2]: attenuate or fully reverse
- effect of channel blocker alone on memory and performance in delayed alternation task ([3]; XE991 60 nmol/1 ul/1 min, acute bilateral infusion into prefrontal cortex, alone): did not disrupt the memory and performance
- reversal of PCP-induced working memory deficits ([3]; XE991 60 nmol/1 μl/1 min microinfusion into PFC 5 minutes before PCP 3.0 mg/kg s.c., p<0.05 vs. Sal/PCP): reversed the PCP-induced memory deficits
- effect on PCP-mediated working memory disruption ([3]; XE991 microinjected in the nucleus accumbens (data not shown)): no effect
- effect on deficits in forced delayed alternation task performance in a T-maze produced by phencyclidine (summary statement) [3]: attenuate or fully reverse
- effect of channel blocker alone on level of social interaction ([4]; XE991 0.5 mg/kg s.c. alone): did not significantly modulate
- reversal of PCP-induced social interaction deficit ([4]; XE991 0.5 mg/kg s.c. co-administered with PCP 1.5 mg/kg s.c. (cocktail in saline)): reversed the deficit

Structure (SMILES): O=C1c2ccccc2C(Cc2ccnc(F)c2)(Cc2ccnc(F)c2)c2ccccc21 [DMP543, 10,10-bis(2-fluoro-4-pyridinylmethyl)-9(10H)-anthracenone]
- effect on deficits in prepulse inhibition produced by phencyclidine (summary statement) [1]: attenuate or fully reverse
- effect on deficits in social interaction produced by phencyclidine (summary statement) [2]: attenuate or fully reverse
- effect on deficits in forced delayed alternation task performance in a T-maze produced by phencyclidine (summary statement) [3]: attenuate or fully reverse
- effect of channel blocker alone on level of social interaction ([4]; DMP543 0.15 mg/kg s.c. alone): did not significantly modulate
- reversal of PCP-induced social interaction deficit ([4]; DMP543 0.15 mg/kg s.c. co-administered with PCP 1.5 mg/kg s.c. (cocktail in 40% DMSO)): significantly reversed the deficit
- reversal of PCP-induced social interaction deficit ([4]; DMP543 0.15 mg/kg s.c. co-administered with PCP 1.5 mg/kg s.c. (cocktail in 40% DMSO), listed as DM543): reversed
- potency at KCNQ channel (KCNQ channel): higher potency
- serum half-life [5]: higher serum half-life
